Data: publication PMC7070897 (Molecules, 2020)
Where “and” joins values, the source holds several entries; their conditions need not be identical. Identical values can stand only once. Like-named read-outs stand apart in the source and are kept apart here. Positions of bridges follow the written chain, without caps; N, C: chain ends. Residues, ends and D or L forms follow the SMILES beside them.

Columns and labels:
[1] = on-resin Ugi-4CR macrocyclisation (stapling), Lys side-chain amine (i) to Asp/Glu side-chain acid (i+4): 1) paraformaldehyde 4 eq, pyrrolidine 4 eq, THF/MeOH 1:1, 30 min (imine); 2) isocyanide R-NC 4 eq, DCM/TFE 1:1, overnight; then TFA/TIS/H2O cleavage; details: the molecule shown is the open-chain precursor, 18.0 h, 3 steps
[2] = test system: Phytophthora infestans (Mont.) de Bary
[3] = read-out: IC50 in μM, Phythophtora Infestants, Figures 1B and 2C, 96-well plate, OD 405 nm seven days after inoculation, triplicate, IC50 from dose-response curves by linear regression
[4] = read-out: Half maximal inhibitory concentration, Septoria Tritici
[5] = read-out: Half maximal inhibitory concentration, Botrytis Cinerea
[6] = read-out: Half maximal inhibitory concentration, Phytophthora Infestans

Molecule	IC50 (Septoria tritici Desm.; [4]) [µM]	IC50 (Botrytis cinerea Pers.; [5]) [µM]	IC50 [2, 6] [µM]	other results
C=NCCCC[C@H](NC(=O)[C@H](C)NC(=O)[C@H](CCCCNC(=O)OC(C)(C)C)NC(=O)[C@H](CC(C)C)NC(=O)[C@H](CC(C)C)NC(=O)[C@H](CCCCNC(=O)OC(C)(C)C)NC(=O)[C@H](C)NC(=O)[C@H](CC(C)C)NC(C)=O)C(=O)N[C@@H](C)C(=O)N[C@@H](CCCCNC(=O)OC(C)(C)C)C(=O)N[C@@H](C)C(=O)N[C@@H](CC(=O)O)C(N)=O	–	–	–	ring closure, conversion by HPLC (% crude UHPLC purity after cleavage) ([1]; 20-membered ring): 63 and 54
C=NCCCC[C@H](NC(=O)[C@H](CCCCNC(=O)OC(C)(C)C)NC(=O)[C@H](CC(C)C)NC(C)=O)C(=O)N[C@@H](CC(C)C)C(=O)N[C@@H](CC(C)C)C(=O)N[C@@H](CCCCNC(=O)OC(C)(C)C)C(=O)N[C@@H](CCC(=O)O)C(=O)N[C@@H](CC(C)C)C(=O)N[C@@H](CC(C)C)C(=O)N[C@@H](CCCCNC(=O)OC(C)(C)C)C(=O)N[C@@H](CCCCNC(=O)OC(C)(C)C)C(=O)N[C@@H](CC(C)C)C(N)=O	–	–	–	ring closure, conversion by HPLC (% crude UHPLC purity after cleavage) ([1]; 21-membered ring): 68
CC(=O)N[C@@H](CC(C)C)C(=O)N[C@@H](CCCCN)C(=O)N[C@@H](CCCCN)C(=O)N[C@@H](CC(C)C)C(=O)N[C@@H](CC(C)C)C(=O)N[C@@H](CCCCN)C(=O)N[C@@H](CCCCN)C(=O)N[C@H]1CCCCNC(=O)CC[C@@H](C(N)=O)NC(=O)[C@H](CCCCN)NC(=O)[C@H](CCCCN)NC(=O)[C@H](CC(C)C)NC1=O [Peptide 6, Ac-(cyclo-8,12))-[LKKLLKKKLKKE]-NH2] (Ac-LKKLLKKKLKKE-NH2; lactam 8-12)	–	–	–	IC50 (Septoria tritici Desm.): 16.6 µM; IC50 (Botrytis cinerea Pers.): > 50 µM; IC50 [2, 3]: 18 µM
Ac-(N-(2-(n-butylamino)-2-oxoethyl)-(cyclo-8,12))-[LAKLLKAKAKAD]-NH2 (sidechain bridge or staple) [Peptide 2]	> 50	> 50	26.2	–
Ac-(N-(2-(n-dodecylamino)-2-oxoethyl)-(cyclo-8,12))-[LAKLLKAKAKAD]-NH2 (sidechain bridge or staple) [Peptide 3]	5.9	9.8	14.3	–
Ac-(cyclo-8,12))-[LAKLLKAKAKAD]-NH2 (sidechain bridge or staple) [Peptide 4]	> 50	> 50	20.9	–
Ac-LAKLLKAKAKAD-NH2 [Peptide 1]	> 50	> 50	> 50	–
Ac-LKKLLKKLLKKL-NH2 [Peptide 5, Ac-LKKLLKKLLKKL]	–	–	–	IC50 (Septoria tritici Desm.): 4.5 µM; IC50 (Botrytis cinerea Pers.): > 50 µM; IC50 [2, 3]: 5.4 µM
